{
  "source": "patent US20220184222A1",
  "about": "“BICYCLE TOXIN CONJUGATES AND USES THEREOF” (BicycleTx Limited, priority 2019, published 2022)",
  "tested_on": "15 low-passage Champions TumorGraft models of human non-small cell lung cancer",
  "assay": "Panel of 15 NSCLC patient derived tumor xenografts (Champions PDX indication screen), overall",
  "assay_type": "in vivo, Mus musculus",
  "conditions": "weekly 3 mpk",
  "description": "This study was conducted to evaluate the in vivo antitumor activity of BT5528 as monotherapy in 15 low-passage Champions TumorGraft® models.\nMice were implanted subcutaneously into the left flank with tumor fragments from one of the various models. After tumors grew to an average of 150-300 mm^3, mice were treated by IV administration Q7Dx4 (n=2) with vehicle or 3 mg/kg of BT5528. Effects on tumor growth were evaluated by measuring percent tumor growth inhibition (% TGI), and the number of complete responders (CR), partial responders (PR), and tumor-free survivors (TFS). Tolerability was assessed by body weight loss, lethality, and clinical signs of adverse treatment-related side effects. Tumor volumes and body weights were measured twice a week. […]\nStock mice were implanted with tumor cells from Champions TumorGraft® models CTG-0160, CTG-0170, CTG-0178, CTG-0192, CTG-0363, CTG-0808, CTG-0838, CTG-0848, CTG-1212, CTG-1502, CTG-1535, CTG-2011, CTG-2393, CTG-2539 or CTG-2540. […] Tumor growth was monitored twice a week using digital calipers and the tumor volume (TV) was calculated using the formula (0.52×[length×width^2]). […] After the initiation of dosing on Day 0, animals were weighed twice per week using a digital scale and TV was measured twice per week and also on the final day of study. […]",
  "note": "Starred links: 1 amine or outer side, 2 acyl side, 3 side chain; linkers in the order of their positions; H or OH if unused. Non-standard residues stand in square brackets, D forms with d. Residues, ends and D or L forms follow the SMILES beside them. *: point of attachment. Dolaproine = CO[C@@H]([C@@H]1CCCN1)[C@@H](C)C(=O)O; Dil = CC[C@H](C)[C@H](NC)[C@@H](CC(=O)O)OC; PABC = O=C(OCc1ccc(N[*:1])cc1)[*:2]; X1 = O=C(CCCC(=O)*)ON1C(=O)CCC1=O; X2 = C[C@@H](N*)[C@@H](O)c1ccccc1; Cit = NC(=O)NCCC[C@H](N)C(=O)O; NMeV = CN[C@H](C(=O)O)C(C)C",
  "data": [
    {"compound": "CC[C@H](C)[C@@H]([C@@H](CC(=O)N1CCC[C@H]1[C@H](OC)[C@@H](C)C(=O)N[C@H](C)[C@@H](O)c1ccccc1)OC)N(C)C(=O)[C@@H](NC(=O)[C@H](C(C)C)N(C)C(=O)OCc1ccc(NC(=O)[C@H](CCCNC(N)=O)NC(=O)[C@@H](NC(=O)CCCC(=O)ON2C(=O)CCC2=O)C(C)C)cc1)C(C)C", "note": "[BT5528] (X1-V[Cit][PABC][NMeV]V[Dil][Dolaproine]-X2)", "values": [
      {"measurement": "models with tumor growth inhibition of 50% or more", "value": "10 out of 15"}
    ]}
  ]
}
